# From PubChem BioAssay AID1996
# Details: buffer; pH 7.4; 200.0 µM
row,solubility kinetic,Structure (SMILES)
1,9.5 µg/mL,CCOC(=O)c1nc(NCc2ccccc2)sc1C
2,> 40.2 µg/mL,CCOC(=O)c1sc(=NC(=O)C2CC2)n(C)c1C
3,> 29.7 µg/mL,CCCc1nc(SC)[nH]c(=O)c1C
4,40.5 µg/mL,Cc1ccc(S(=O)(=O)N2CC=C(C(=O)NC3CC3)CC2)cc1
5,> 50.2 µg/mL,CN(C)C(=O)Oc1cccc([N+](C)(C)C)c1.COS(=O)(=O)[O-]
6,> 55.7 µg/mL,CN(C)C(CNC(=O)C1CCCN1C(=O)c1cccs1)c1ccccc1 (stereo not given)
7,> 32.4 µg/mL,CC(O)c1ccc(Oc2cnccn2)cc1 (stereo not given)
8,38.8 µg/mL,Br.C1=C(c2ccco2)N2CCN=C2S1
9,19.8 µg/mL,Cc1cccc(Nc2nc(N)c([N+](=O)[O-])c(NCCO)n2)c1
10,45 µg/mL,COC(=O)c1ccc(OCC(=O)N2CCCc3ccccc32)cc1
11,6.8 µg/mL,COc1ccc(C)cc1S(=O)(=O)n1cnc2ccccc21
12,> 36.9 µg/mL,Nc1c(C(=O)N2CCOCC2)oc2ccccc12
13,> 46.6 µg/mL,CCNS(=O)(=O)c1ccc(CCC(=O)N2CCCC2)cc1
14,52.6 µg/mL,COc1cc(NC(=O)CSCc2ccccc2)c(C(=O)O)cc1OC
15,44 µg/mL,O=C1c2ccccc2C(=O)N1CC(O)COc1ccccc1Cl (stereo not given)
16,25.4 µg/mL,COc1ccc2[nH]cc(CCNC(=O)Cc3ccc(F)cc3)c2c1
17,4.5 µg/mL,Cc1c(C(=O)Nc2cccc(S(=O)(=O)N3CCOCC3)c2)oc2ccc(Br)cc12
18,0.1 µg/mL,Nc1nc(NCc2ccco2)nc(Nc2ccc(F)cc2)c1[N+](=O)[O-]
19,2.5 µg/mL,CC(CCc1ccccc1)NC(=O)Cc1ccc(Br)cc1 (stereo not given)
20,> 50.3 µg/mL,O=C(O)c1ccccc1-c1ccccc1C(=O)Nc1ccc(F)cc1
21,6 µg/mL,Cc1ccc(N2C(=O)N(CC(=O)Nc3ccc([N+](=O)[O-])cc3)C(=O)C2C)cc1 (stereo not given)
22,18.2 µg/mL,Cc1ccc(Nc2cc(=O)[nH]c(=O)[nH]2)cc1C
23,0.7 µg/mL,Cc1cc(C)cc(C(=O)Nc2ccc(N3CCCC3)cc2)c1
24,19.1 µg/mL,COc1cnc(-c2ccccc2)nc1OC

row,solubility kinetic,Structure (SMILES)
1,25.3 µg/mL,N#Cc1ccncc1Sc1ccc(Cl)cc1
2,32.8 µg/mL,CN(CCOc1ccccc1)CCOc1ccccc1
3,> 48.6 µg/mL,O=C(O)c1cccnc1SCc1cccc(Br)c1
4,> 51.8 µg/mL,CCCn1c(SCC(=O)NC2CCCC2)nnc1-c1cccnc1
5,36.2 µg/mL,COc1cccc(C(=O)N2CCCN(C)CC2)c1OC
6,26.3 µg/mL,O=C(Oc1ccccc1N1CCOCC1)c1ccccc1
7,1.5 µg/mL,CCOc1ccc(C(=O)NCCNC(=O)c2ccc(OCC)cc2)cc1
8,40.4 µg/mL,CCCOc1ccc(C2=CSC3=NCCN23)cc1Cl
9,2.9 µg/mL,O=C1CSC(=S)N1c1cccc(Br)c1
10,> 42.4 µg/mL,Cc1ccccc1NC(=O)CC(=O)Nc1ccccc1C
11,2 µg/mL,O=C(Nc1ccc(Cl)cn1)C1COc2ccccc2O1 (stereo not given)
12,2.2 µg/mL,Cc1cccc(NC(=O)c2ccc3c(c2)C(=O)N(c2ccccn2)C3=O)c1C
13,> 51.1 µg/mL,Cc1nc2ccc(NS(=O)(=O)c3c(F)cccc3F)cc2s1
14,> 49.1 µg/mL,COc1ccccc1Oc1ccc2c(c1)C(=O)N(CC(=O)O)C2=O
15,42.9 µg/mL,CC(Sc1nccn1C)C(=O)c1ccc(Br)cc1 (stereo not given)
16,> 48.1 µg/mL,COc1ccc(CNC(=O)C2CCC(=O)N2C(C)C)c(OC)c1 (stereo not given)
17,40.3 µg/mL,O=C(COC(=O)C1=COCCO1)NCc1ccc(F)cc1
18,> 58.5 µg/mL,O=C(NCCC(=O)N1CCN(C(=O)c2ccco2)CC1)c1ccccc1Cl
19,3.8 µg/mL,CCOC(=O)Cc1csc(NC(=O)Nc2ccc(C)cc2)n1
20,21.3 µg/mL,O=c1[nH]cnc2sc3c(c12)CN(Cc1ccccc1)CC3
21,38.3 µg/mL,CCC(C(=O)Nc1nc(C)c(C)s1)c1ccccc1 (stereo not given)
22,> 47.3 µg/mL,CC1CCN(C(=O)COC(=O)Cn2cnc3ccccc32)CC1
23,29 µg/mL,Cc1ccc(OCCNC(=O)c2cccc(C)c2)cc1
24,1.6 µg/mL,COc1cccc2c(=O)n(CC(=O)NCCc3ccccc3)ccc12

row,solubility kinetic,Structure (SMILES)
1,1.7 µg/mL,Cc1ccc(C(=O)Nc2ccc(NC(=O)c3ccc(C)o3)cc2)o1
2,> 40.6 µg/mL,COCCCNC(=S)NCCc1ccc(F)cc1
3,44.3 µg/mL,COc1ccc(NC(=O)COCC(=O)Nc2ccc(C)cc2)cc1
4,> 41.3 µg/mL,CCC(=O)c1ccc(OCC(=O)NC2CCCC2)cc1
5,3.3 µg/mL,COC(=O)c1ccc(COc2cc([N+](=O)[O-])cc3cccnc23)o1
6,1.7 µg/mL,Cc1ccc2c(CN(C)Cc3ccccc3)cc(=O)oc2c1C
7,25.2 µg/mL,COc1ccc2cc3c(nc2c1)OCC3
8,> 49.8 µg/mL,CC(NC(=O)COC(=O)Cc1ccc(Cl)cc1)c1ccccc1 (stereo not given)
9,22.5 µg/mL,CC(OC(=O)c1cccn1C)C(=O)Nc1ccc2c(c1)OCO2 (stereo not given)
10,> 43.4 µg/mL,CC(=O)c1ccc(NC(=O)CSc2nccn2C)cc1
11,2.7 µg/mL,COc1ccc(NC(=O)COc2ccc3c(c2)CCC3)cc1
12,> 50.6 µg/mL,O=C1CCCC(=O)N1c1ccc(NCCOCCO)c([N+](=O)[O-])c1
13,> 46.4 µg/mL,CC(=O)Nc1cccc(NS(=O)(=O)c2c(C)noc2C)c1
14,< 0.4 µg/mL,CCOc1ccc(NC(=O)c2ccc(Cl)c(NC(=O)c3ccco3)c2)cc1
15,45.3 µg/mL,CN(CC(=O)Nc1ccccc1Cl)CC(=O)Nc1cccc2ccccc12
16,40 µg/mL,O=C(NCc1ccco1)c1ccc([N+](=O)[O-])cc1Cl
17,34.4 µg/mL,c1ccc2[nH]c(-c3ccc4c(c3)OCO4)nc2c1
18,8.9 µg/mL,C#CCOc1nc2c(c(=O)n(C)c(=O)n2C)n1Cc1ccccc1
19,> 61.1 µg/mL,O=C(COC(=O)c1cc(S(=O)(=O)N2CCOCC2)ccc1F)c1ccccc1
20,7.8 µg/mL,COc1ccc(/C=C/C(=O)O/N=C(\N)c2ccccn2)cc1OC
21,5.5 µg/mL,CC1CC(C)CN(S(=O)(=O)c2cccc3nonc23)C1 (stereo not given)
22,33.4 µg/mL,CCC(C(=O)NC1CCCCCC1)c1ccccc1 (stereo not given)
23,< 0.3 µg/mL,CSc1ccccc1NC(=O)Nc1cccc2ccccc12
24,> 42.2 µg/mL,CC(C)CC(=O)N/N=C/c1c(N)n(C)c(=O)n(C)c1=O

row,solubility kinetic,Structure (SMILES)
1,> 44 µg/mL,COCCNC(=O)C(=O)NNC(=O)CCc1ccccc1
2,> 50.5 µg/mL,COc1cc([N+](=O)[O-])ccc1NC(=O)NCCCN1CCCC1=O
3,> 41.1 µg/mL,Cc1ccc(NC(=O)c2c([N+](=O)[O-])cnn2C)cc1C
4,> 42.8 µg/mL,Cc1cccc(-n2cnc(C(=O)N3CCN(C)CC3)c2)n1
5,30 µg/mL,CSc1ccccc1NC(=O)c1csc(C)c1
6,> 47.8 µg/mL,COc1ccccc1C(=O)NCCC(=O)NC1CCCCCC1
7,< 0.2 µg/mL,COc1ccc(C(C#N)c2nc3ccccc3nc2Cl)cc1 (stereo not given)
8,16.6 µg/mL,Cc1ccc(C23CC4CC(CC(C(N)=O)(C4)C2)C3)cc1
9,1.3 µg/mL,NC(=O)c1c(NC(=O)c2ccccc2)sc2c1CCC2
10,> 30.8 µg/mL,O=C1NC(=S)N/C1=C\c1cccnc1
11,0.7 µg/mL,O=C(Nc1ccc(F)c(Cl)c1)c1nsc(Cl)c1Cl
12,> 39.9 µg/mL,Cn1c(NC2CCCCC2)c(N=O)c(=O)n(C)c1=O
13,> 51.2 µg/mL,CC(C)n1c(C(F)(F)F)nc2cc(C(=O)N3CCOCC3)ccc21
14,> 54.5 µg/mL,COc1ccc(CCNC(=O)c2noc(C(C)C)c2[N+](=O)[O-])cc1OC
15,2.3 µg/mL,S=C(NCc1ccccc1)NCc1ccc(Cl)cc1
16,> 39.2 µg/mL,Cc1ccc(S(=O)(=O)CCc2ccncc2)cc1
17,< 0.3 µg/mL,O=C(Nc1cccc2ccccc12)NC1Cc2ccccc2C1
18,25.3 µg/mL,Cc1ccc(-c2nc3ncccc3o2)cc1NC(=O)C(C)C
19,24.1 µg/mL,Cn1ccnc1Sc1ccccc1[N+](=O)[O-]
20,37.9 µg/mL,COc1ccc(-c2nc3ccccc3c(=O)n2O)cc1
21,> 34.1 µg/mL,NC(N)=NC(N)=Nc1cccc2ccccc12
22,4.1 µg/mL,Cc1cc(C)c(NC(=O)C(=O)NCc2ccco2)c(C)c1
23,> 45.8 µg/mL,Cc1cc(C)c(OCC(=O)OC(C)C(=O)NC2CC2)c(C)c1 (stereo not given)
24,10.7 µg/mL,COC(=O)Cc1cc(=O)[nH]c(/N=C(\N)Nc2cccc(C)c2)n1

row,solubility kinetic,Structure (SMILES)
1,> 44.6 µg/mL,Cc1cccc(C(=O)OCC(=O)N(C)c2ccccc2)c1C
2,3 µg/mL,CN(Cc1ccccc1)S(=O)(=O)c1cccc2nsnc12
3,37.5 µg/mL,O=C1CCCc2ccccc2N1Cc1ccccc1
4,> 42.5 µg/mL,CC(=O)CSc1ccc(-c2nc3ccccc3[nH]2)cn1
5,9.7 µg/mL,O=C(Nc1ccccc1)N1CCCN(c2ccc(C(F)(F)F)cn2)CC1
6,2.5 µg/mL,O=C(NCC1CCCO1)c1ccc(NC(=O)c2cccc(Cl)c2)cc1 (stereo not given)
7,> 42.9 µg/mL,CCOC(=O)c1[nH]c(=O)[nH]c1CNc1ccccc1C#N
8,22.5 µg/mL,O=C(COC(=O)c1ccc([N+](=O)[O-])s1)c1ccc[nH]1
9,> 43.2 µg/mL,COc1ccccc1Nc1ccc(C(=O)O)cc1[N+](=O)[O-]
10,46.2 µg/mL,CCc1ccccc1NC(=O)COC(=O)C1C2CC3OC(=O)C1C3C2 (stereo not given)
11,27.5 µg/mL,O=C(COC(=O)C12CC3CC(CC(Cl)(C3)C1)C2)N1CCCCC1
12,2.9 µg/mL,COc1ccc(NC(=O)CN(c2ccccc2OC)S(=O)(=O)c2cccs2)cc1Cl
13,> 44.8 µg/mL,COCCNC(=O)C(NC(=O)C1CCC(C)CC1)C(C)C (stereo not given)
14,4.8 µg/mL,COc1cc(/C=C/c2ccc3cccc(O)c3n2)ccc1O
15,> 52.3 µg/mL,O=C(NCCc1ccccc1Cl)C1CC(=O)N(C2CCCCC2)C1 (stereo not given)
16,1.9 µg/mL,O=C(Nc1ccc(F)cc1F)NC1CCCCCCC1
17,22.3 µg/mL,COc1ccc(CNS(=O)(=O)NCc2ccccc2F)cc1
18,> 37.8 µg/mL,O=c1[nH]cnc2c1ncn2[C@@H]1C[C@@H](O)[C@H](CO)O1
19,> 77.9 µg/mL,CCOc1cc(N2CCOCC2)c(OCC)cc1NC(=O)c1cccc(S(=O)(=O)N2CCOCC2)c1
20,> 41.5 µg/mL,COc1ccc(CC(=O)Nc2ccncc2Cl)cc1
21,2.8 µg/mL,COC(=O)c1ccc(N2CCOCC2)c(NC(=O)c2ccco2)c1

row,Structure (SMILES),solubility kinetic
1,CC(C)N1CCN(Cc2c[nH]c3ccccc23)CC1CCO (stereo not given),32.8 µg/mL
2,CN(C)[C@@H]1C(=O)C(C(N)=O)=C(O)[C@@]2(O)C(=O)C3=C(O)c4c(O)cccc4[C@@](C)(O)[C@H]3[C@H](O)[C@@H]12,47 µg/mL
3,CN(C(=O)COC(=O)c1cn(C)c2ccccc12)C1CCCCC1,> 49.3 µg/mL
